Measurements reported in ChEMBL document CHEMBL5291721, “A preclinical secondary pharmacology resource illuminates target-adverse drug reaction associations of marketed drugs” (Nat Commun, 2023).

Key:
[1] = molecular target: T1, Alpha-2A adrenergic receptor (Homo sapiens, UniProt P08913); format: functional, cell-based
T1 sequence (P08913 whole entry): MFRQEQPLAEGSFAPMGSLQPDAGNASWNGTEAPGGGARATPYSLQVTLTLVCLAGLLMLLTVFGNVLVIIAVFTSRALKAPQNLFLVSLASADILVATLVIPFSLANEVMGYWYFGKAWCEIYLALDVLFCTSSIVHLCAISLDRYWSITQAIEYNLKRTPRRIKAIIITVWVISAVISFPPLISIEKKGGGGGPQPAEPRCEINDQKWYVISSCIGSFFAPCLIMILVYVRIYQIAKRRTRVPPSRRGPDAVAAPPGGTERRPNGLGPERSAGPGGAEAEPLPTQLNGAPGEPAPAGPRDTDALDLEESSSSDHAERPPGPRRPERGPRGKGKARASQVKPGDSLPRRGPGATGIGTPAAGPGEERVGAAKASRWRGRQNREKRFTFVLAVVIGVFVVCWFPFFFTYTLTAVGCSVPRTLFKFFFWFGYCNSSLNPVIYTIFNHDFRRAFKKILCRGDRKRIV

[2] = molecular target: T2, 5-hydroxytryptamine receptor 1A (Homo sapiens, UniProt P08908); format: functional, cell-based
T2 sequence (P08908 whole entry): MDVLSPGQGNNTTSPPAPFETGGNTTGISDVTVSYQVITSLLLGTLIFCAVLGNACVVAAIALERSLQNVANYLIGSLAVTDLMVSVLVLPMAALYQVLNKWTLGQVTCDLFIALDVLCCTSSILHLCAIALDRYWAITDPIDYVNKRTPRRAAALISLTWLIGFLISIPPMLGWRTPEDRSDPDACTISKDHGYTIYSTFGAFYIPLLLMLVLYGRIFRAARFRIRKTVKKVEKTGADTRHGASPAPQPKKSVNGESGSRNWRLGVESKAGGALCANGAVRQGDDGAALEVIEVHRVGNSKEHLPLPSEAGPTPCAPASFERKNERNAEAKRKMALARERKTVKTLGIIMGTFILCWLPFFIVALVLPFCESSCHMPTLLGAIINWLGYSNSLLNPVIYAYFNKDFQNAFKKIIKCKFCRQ

[3] = molecular target: 5-hydroxytryptamine receptor 2B (Homo sapiens, UniProt P41595); format: functional, cell-based
Melanocortin receptor 3 = Melanocortin receptor 3 (Homo sapiens, UniProt P41968)
[4] = molecular target: T3, Prostaglandin G/H synthase 1 (Rattus norvegicus, UniProt Q63921); format: functional
T3 sequence (Q63921 whole entry): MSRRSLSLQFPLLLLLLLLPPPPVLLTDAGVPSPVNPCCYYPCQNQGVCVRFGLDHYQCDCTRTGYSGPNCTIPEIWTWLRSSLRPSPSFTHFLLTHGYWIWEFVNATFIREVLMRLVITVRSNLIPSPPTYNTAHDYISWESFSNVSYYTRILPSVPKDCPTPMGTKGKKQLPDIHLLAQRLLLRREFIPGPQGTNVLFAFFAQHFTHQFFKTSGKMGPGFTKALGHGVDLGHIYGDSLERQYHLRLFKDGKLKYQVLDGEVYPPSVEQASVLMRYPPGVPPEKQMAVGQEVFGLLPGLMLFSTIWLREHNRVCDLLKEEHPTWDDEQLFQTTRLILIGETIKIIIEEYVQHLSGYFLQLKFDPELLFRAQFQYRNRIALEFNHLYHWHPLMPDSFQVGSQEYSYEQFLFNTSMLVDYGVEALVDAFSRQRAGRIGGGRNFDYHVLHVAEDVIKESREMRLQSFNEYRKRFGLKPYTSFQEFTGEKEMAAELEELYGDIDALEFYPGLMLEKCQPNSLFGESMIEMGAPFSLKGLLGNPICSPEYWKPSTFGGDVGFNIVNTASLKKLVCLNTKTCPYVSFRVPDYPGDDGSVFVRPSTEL

[5] = molecular target: Sodium-dependent noradrenaline transporter (Homo sapiens, UniProt P23975)
[6] = molecular target: T4, Amine oxidase [flavin-containing] A (Homo sapiens, UniProt P21397); format: functional
T4 sequence (P21397 whole entry): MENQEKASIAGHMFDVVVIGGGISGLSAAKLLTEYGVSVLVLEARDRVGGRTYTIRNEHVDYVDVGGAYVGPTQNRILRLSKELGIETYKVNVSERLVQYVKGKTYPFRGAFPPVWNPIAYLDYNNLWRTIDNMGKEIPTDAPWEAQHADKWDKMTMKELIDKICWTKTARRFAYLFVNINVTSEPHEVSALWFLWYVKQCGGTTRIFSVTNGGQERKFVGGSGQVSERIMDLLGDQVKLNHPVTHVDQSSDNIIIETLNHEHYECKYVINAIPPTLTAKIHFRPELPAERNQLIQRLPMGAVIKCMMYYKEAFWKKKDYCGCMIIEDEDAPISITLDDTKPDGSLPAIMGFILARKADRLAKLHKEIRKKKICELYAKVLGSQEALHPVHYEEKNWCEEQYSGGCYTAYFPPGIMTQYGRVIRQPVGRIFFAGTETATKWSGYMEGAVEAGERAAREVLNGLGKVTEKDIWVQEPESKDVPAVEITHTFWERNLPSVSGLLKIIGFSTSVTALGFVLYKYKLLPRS

Vasopressin V2 receptor = Vasopressin V2 receptor (Homo sapiens, UniProt P30518)
Further: assay procedure not described here.

Chain of Sodium-dependent noradrenaline transporter (P23975 whole entry): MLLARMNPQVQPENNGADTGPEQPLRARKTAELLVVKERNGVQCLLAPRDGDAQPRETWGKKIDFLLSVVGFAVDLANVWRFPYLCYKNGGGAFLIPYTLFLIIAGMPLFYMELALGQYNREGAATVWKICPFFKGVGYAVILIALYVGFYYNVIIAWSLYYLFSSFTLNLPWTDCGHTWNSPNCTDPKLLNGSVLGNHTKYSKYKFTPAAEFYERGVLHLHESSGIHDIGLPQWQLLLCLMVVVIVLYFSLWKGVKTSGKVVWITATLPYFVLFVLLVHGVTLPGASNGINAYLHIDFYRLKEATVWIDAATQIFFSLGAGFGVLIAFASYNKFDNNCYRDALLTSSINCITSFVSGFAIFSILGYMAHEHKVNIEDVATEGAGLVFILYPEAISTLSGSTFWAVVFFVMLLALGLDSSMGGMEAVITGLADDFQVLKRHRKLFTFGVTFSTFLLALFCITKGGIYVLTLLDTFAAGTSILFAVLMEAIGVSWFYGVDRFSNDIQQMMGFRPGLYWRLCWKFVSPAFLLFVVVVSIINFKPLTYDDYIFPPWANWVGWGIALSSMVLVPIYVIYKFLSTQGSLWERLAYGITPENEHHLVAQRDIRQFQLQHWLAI
Chain of Melanocortin receptor 3 (P41968 whole entry): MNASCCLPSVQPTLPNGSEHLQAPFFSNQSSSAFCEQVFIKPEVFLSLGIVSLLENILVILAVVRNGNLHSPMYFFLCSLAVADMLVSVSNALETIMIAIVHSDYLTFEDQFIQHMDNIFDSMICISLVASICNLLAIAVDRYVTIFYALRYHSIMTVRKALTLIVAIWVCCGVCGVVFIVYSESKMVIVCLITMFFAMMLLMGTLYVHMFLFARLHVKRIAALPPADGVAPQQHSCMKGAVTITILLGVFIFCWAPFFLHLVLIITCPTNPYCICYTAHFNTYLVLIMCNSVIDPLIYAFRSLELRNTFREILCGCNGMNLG
Chain of 5-hydroxytryptamine receptor 2B (P41595 whole entry): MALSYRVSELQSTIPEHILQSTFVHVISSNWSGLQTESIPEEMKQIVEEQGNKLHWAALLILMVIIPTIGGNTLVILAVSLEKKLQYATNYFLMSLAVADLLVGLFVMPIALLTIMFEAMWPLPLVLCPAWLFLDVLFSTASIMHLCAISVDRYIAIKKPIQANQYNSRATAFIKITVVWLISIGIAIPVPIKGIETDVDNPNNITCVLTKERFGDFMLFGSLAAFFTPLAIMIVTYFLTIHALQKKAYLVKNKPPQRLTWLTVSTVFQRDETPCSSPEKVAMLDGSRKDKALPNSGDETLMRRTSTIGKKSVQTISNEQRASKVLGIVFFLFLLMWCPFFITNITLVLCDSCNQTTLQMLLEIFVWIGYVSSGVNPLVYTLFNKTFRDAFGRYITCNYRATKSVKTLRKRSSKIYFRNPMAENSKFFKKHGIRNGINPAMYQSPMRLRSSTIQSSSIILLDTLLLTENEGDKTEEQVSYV
Chain of Vasopressin V2 receptor (P30518 whole entry): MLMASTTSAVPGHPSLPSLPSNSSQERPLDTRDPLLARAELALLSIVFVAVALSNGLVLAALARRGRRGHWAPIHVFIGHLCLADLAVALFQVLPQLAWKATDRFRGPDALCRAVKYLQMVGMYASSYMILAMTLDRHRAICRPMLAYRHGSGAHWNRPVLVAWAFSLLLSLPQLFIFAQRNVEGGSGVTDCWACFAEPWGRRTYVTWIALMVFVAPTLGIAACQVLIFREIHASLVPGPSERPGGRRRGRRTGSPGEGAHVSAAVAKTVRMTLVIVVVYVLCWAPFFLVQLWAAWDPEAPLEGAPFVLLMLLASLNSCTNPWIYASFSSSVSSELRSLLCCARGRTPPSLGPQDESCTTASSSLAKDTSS

Structure (SMILES)	AC50 [1] [µM]	AC50 [2] [µM]	AC50 [3] [µM]	AC50 (Melanocortin receptor 3) [µM]	AC50 [4] [µM]	AC50 [5] [µM]	AC50 [6] [µM]	AC50 (Vasopressin V2 receptor) [µM]
CC(=N)N1CC[C@H](SC2=C(C(=O)O)N3C(=O)[C@H]([C@@H](C)O)[C@H]3C2)C1	> 300	> 300	> 300	> 300	5.1	> 300	> 300	–
C=C(C)[C@@H]1CCC(C)=C[C@H]1c1c(O)cc(CCCCC)cc1O [CANNABIDIOL]	> 10	> 10	> 30	25	0.771	17.3	> 30	–
CO/N=C(\C(=O)N[C@@H]1C(=O)N2C(C(=O)O)=C(COC(N)=O)CS[C@H]12)c1ccco1 [CEFUROXIME]	> 30	> 30	> 30	> 30	> 30	> 30	> 30	> 30
C#Cc1cccc(Nc2ncnc3cc(OCCOC)c(OCCOC)cc23)c1 [ERLOTINIB]	> 30	> 30	> 30	> 30	> 30	> 30	> 30	–
CC1(C)O[C@@H]2C[C@H]3[C@@H]4C[C@H](F)C5=CC(=O)C=C[C@]5(C)[C@H]4[C@@H](O)C[C@]3(C)[C@]2(C(=O)CO)O1 [FLUNISOLIDE]	> 30	> 30	> 30	> 30	> 30	> 30	> 30	–
CCC(=O)O[C@@H](O[P@](=O)(CCCCc1ccccc1)CC(=O)N1C[C@H](C2CCCCC2)C[C@H]1C(=O)O)C(C)C [FOSINOPRIL]	> 30	> 30	> 30	–	–	–	> 30	–
C[C@H]1Oc2cc(cnc2N)-c2c(nn(C)c2C#N)CN(C)C(=O)c2ccc(F)cc21 [LORLATINIB]	> 30	> 30	> 30	> 30	> 30	> 30	> 30	–
CN(C)c1cc(CNCC(C)(C)C)c(O)c2c1C[C@H]1C[C@H]3[C@H](N(C)C)C(O)=C(C(N)=O)C(=O)[C@@]3(O)C(O)=C1C2=O [OMADACYCLINE]	> 30	> 30	> 30	> 30	0.645	> 30	> 30	> 30
CNC(=O)c1cc(Oc2ccc(NC(=O)Nc3ccc(Cl)c(C(F)(F)F)c3)c(F)c2)ccn1 [REGORAFENIB]	–	–	–	> 30	> 30	21.9	9.05	–
CCOc1cc(CC(=O)N[C@@H](CC(C)C)c2ccccc2N2CCCCC2)ccc1C(=O)O [REPAGLINIDE]	> 30	> 30	> 10	> 30	> 30	> 30	> 30	–
CCCN(CCc1cccs1)[C@H]1CCc2c(O)cccc2C1 [ROTIGOTINE]	3.7	> 10	0.43	> 30	> 30	5.1	> 30	–
CC[C@H]1OC(=O)[C@H](C)[C@@H](O[C@H]2C[C@@](C)(OC)[C@@H](O)[C@H](C)O2)[C@H](C)[C@@H](O[C@@H]2O[C@H](C)C[C@H](N(C)C)[C@H]2O)[C@](C)(O)C[C@@H](C)/C(=N\OCOCCOC)[C@H](C)[C@@H](O)[C@]1(C)O [ROXITHROMYCIN]	> 30	> 30	> 30	> 30	> 30	> 30	> 30	–
CN1CCN(CCCN2c3ccccc3Sc3ccc(S(=O)(=O)N(C)C)cc32)CC1 [THIOPROPERAZINE]	> 30	–	> 30	–	–	–	> 30	–
